# According to BindingDB's records for doi:10.1021/jm950922q (University of North Carolina at Chapel Hill, 1996):
# Target: HIV-RT (HIV reverse transcriptase)
# Assay: Inhibitory activity against HIV-RT
row,SMILES,IC50 [µM]
1,C=C(C)[C@@H]1CC[C@]2(C(=O)O)CC[C@]3(C)[C@H](CC[C@@H]4[C@@]5(C)CC[C@H](O)C(C)(C)[C@@H]5CC[C@]43C)[C@@H]12,> 219
2,"CC(C)[C@@H]1CC[C@]2(C(=O)O)CC[C@]3(C)[C@H](CC[C@@H]4[C@@]5(C)CC[C@H](OC(=O)CC(C)(C)C(=O)O)C(C)(C)[C@@H]5CC[C@]43C)[C@@H]12 [2,2-Dimethyl-succinic acid 4-((1S,3aS,5aR,5bR,7aR,9S,11aR,11bR,13aR,13bR)-3a-carboxy-1-isopropyl-5a,5b,8,8,11a-pentamethyl-icosahydro-cyclopenta[a]chrysen-9-yl) ester]",> 171
3,"C=C(C)[C@@H]1CC[C@]2(C(=O)O)CC[C@]3(C)[C@H](CC[C@@H]4[C@@]5(C)CC[C@H](OC(=O)CC(C)(C)CC(=O)O)C(C)(C)[C@@H]5CC[C@]43C)[C@@H]12 [3,3-Dimethyl-pentanedioic acid mono-((1R,3aS,5aR,5bR,7aR,9S,11aR,11bR,13aR,13bR)-3a-carboxy-1-isopropenyl-5a,5b,8,8,11a-pentamethyl-icosahydro-cyclopenta[a]chrysen-9-yl) ester]",> 167
4,"CC(C)[C@@H]1CC[C@]2(C(=O)O)CC[C@]3(C)[C@H](CC[C@@H]4[C@@]5(C)CC[C@H](OC(=O)CC(C)(C)CC(=O)O)C(C)(C)[C@@H]5CC[C@]43C)[C@@H]12 [3,3-Dimethyl-pentanedioic acid mono-((1S,3aS,5aR,5bR,7aR,9S,11aR,11bR,13aR,13bR)-3a-carboxy-1-isopropyl-5a,5b,8,8,11a-pentamethyl-icosahydro-cyclopenta[a]chrysen-9-yl) ester]",> 167
5,"C=C(C)[C@@H]1CC[C@]2(C(=O)O)CC[C@]3(C)[C@H](CC[C@@H]4[C@@]5(C)CC[C@H](OC(=O)COCC(=O)O)C(C)(C)[C@@H]5CC[C@]43C)[C@@H]12 [(1R,3aS,5aR,5bR,7aR,9S,11aR,11bR,13aR,13bR)-9-(2-Carboxymethoxy-acetoxy)-1-isopropenyl-5a,5b,8,8,11a-pentamethyl-icosahydro-cyclopenta[a]chrysene-3a-carboxylic acid]",> 175
6,"C=C(C)[C@@H]1CC[C@]2(C(=O)O)CC[C@]3(C)[C@H](CC[C@@H]4[C@@]5(C)CC[C@H](OC(=O)C(C)(C)CC(=O)O)C(C)(C)[C@@H]5CC[C@]43C)[C@@H]12 [(1R,3aS,5aR,5bR,7aR,9S,11aR,11bR,13aR,13bR)-9-(3-carboxy-2,2-dimethylpropanoyloxy)-5a,5b,8,8,11a-pentamethyl-1-(prop-1-en-2-yl)icosahydro-1H-cyclopenta[a]chrysene-3a-carboxylic acid]",> 171
7,"CC(C)[C@@H]1CC[C@]2(C(=O)O)CC[C@]3(C)[C@H](CC[C@@H]4[C@@]5(C)CC[C@H](OC(=O)COCC(=O)O)C(C)(C)[C@@H]5CC[C@]43C)[C@@H]12 [(1S,3aS,5aR,5bR,7aR,9S,11aR,11bR,13aR,13bR)-9-(2-Carboxymethoxy-acetoxy)-1-isopropyl-5a,5b,8,8,11a-pentamethyl-icosahydro-cyclopenta[a]chrysene-3a-carboxylic acid]",> 174
8,CC(C)[C@@H]1CC[C@]2(C(=O)O)CC[C@]3(C)[C@H](CC[C@@H]4[C@@]5(C)CC[C@H](O)C(C)(C)[C@@H]5CC[C@]43C)[C@@H]12 [Dihydrobetulinic acid],> 218
